# Assays:
# [1] = test system: high-fat-induced NAFLD in rats; experiment: High-fat diet-induced NAFLD model in rats; settings: 4 weeks
# Hep G2 cells = settings: niacin 0.5 mM 24 h, then ethanol 48 h in presence or absence of niacin
# Excerpt: Cellular fat accumulation was quantitated by nile red O staining and by measuring fluorescence intensity.
smiles,measurement,setting,value
"O=C(O)c1cccnc1 [niacin, nicotinic acid]",serum cholesterol levels,"[1]; niacin 0.5% and 1% in high-fat diet, compared to rats fed high-fat diet",significantly decreased
same,body weight of rats,"[1]; niacin 0.5% or 1% in high-fat diet, compared to high-fat fed rats",no effect
same,serum triglyceride levels,"[1]; niacin in high-fat diet, compared to rats fed high-fat diet",significantly decreased
same,alcohol-induced fat accumulation,Hep G2 cells,significantly inhibited
